Assays:
IL-4R alpha protein [1] = experiment: IL-4R alpha protein on lung cells by flow cytometry, rechallenge model; type: in vivo, mouse
Procedure: (§1) The rechallenge model of allergic inflammation includes a second series of nebulized OVA challenges on days 66 and 67 in addition to the sensitization and challenge steps of the acute model. This model allows for the evaluation of the target's role in a recall response, as opposed to its role as an initiator molecule. In the rechallenge model, mice were treated with 10, 100 or 500 μg/kg of either ISIS 231894 or the mismatch control oligonucleotide on days 52, 54, 56, 59 and 61, subsequent to the onset and resolution of the OVA-induced acute inflammatory response, delivered by nose only inhalation. The study endpoints were similar to those in the acute model, and included Penh response (i.e. AHR reduction), inflammatory cells and cytokines in BAL (determined by ELISA), mucus accumulation (as determined by periodic acid-Schiff base [PAS] staining in lungs), lung histology and IL-4R alpha protein reduction in lung epithelial and inflammatory cells (as determined by flow cytometry). The results are shown below in Tables 5 and 6.

IL-4R alpha protein [2] = experiment: IL-4R alpha protein in lung cells by flow cytometry, acute model; type: in vivo, mouse
Procedure: Dendritic cells, eosinophils, macrophages and epithelial cells recovered from collagenase digested lung were analyzed for expression of IL-4R alpha protein by flow cytometry. […] A second experiment, in which mice were dosed with 10 μg/kg ISIS 231894, confirmed the efficacy of ISIS 231894 to decrease AHR and eosinophilia in the acute model.

OVA sensitized mice [3] = experiment: Mouse model of allergic inflammation, chronic model (Penh, BAL cells, cytokines); type: in vivo; conditions: for % Eosinophils (BAL) / % Neutrophils (BAL): day 76
Procedure: (§2) In the mouse model of allergic inflammation, mice are sensitized and challenged with aerosolized chicken ovalbumin (OVA). Airway responsiveness is assessed by inducing airflow obstruction using a noninvasive method whereby unrestrained conscious OVA sensitized mice are placed into the main chamber of a plethysmograph (Buxco Electronics, Inc. Troy, N.Y.) and challenged with aerosolized methacholine. Pressure difference between this chamber and a reference chamber is used to extrapolate minute volume, breathing frequency and enhanced pause (Penh). Penh is a dimensionless parameter that is a function of total pulmonary airflow (i.e. the sum of the airflow in the upper and lower respiratory tracts) during the respiratory cycle of a mouse and is […] when airflow is greater. This parameter closely correlates with lung resistance as measured by traditional, invasive techniques using ventilated animals (Hamelmann et al., 1997, Am. J. Respir. Crit. Care Med. 156:766-775).
In the chronic model of allergic inflammation, mice are subjected to repeated intranasal OVA administration, producing a chronic inflammatory response. In this model, mice were sensitized by intraperitoneal injection with 100 μg of OVA on days 0 and 14 as in the previous models. OVA was administered at a dose of 500 μg on days 14, 27, 28, 29, 47, 61, 73, 74 and 75. Oligonucleotide, either ISIS 231894 or the mismatch control, was administered via the nose-only aerosol delivery exposure system at a dose of either 5 μg/kg or 500 μg/kg on days 31, 38, 45, 52, 59, 66 and 73. Dexamethasone, an anti-inflammatory agent, was administered by intraperitoneal injection at 2.5 mg/kg on days 47, 62, 73, 74 and 75. Analysis of endpoints was performed on day 76, except cytokines which were evaluated on day 62, 6 hours post OVA challenge. Endpoints were similar to those in the acute and rechallenge model, and included Penh (AHR), BAL inflammatory cell accumulation and cytokines and mucus accumulation.

OVA sensitized mice [4] = experiment: Mouse model of allergic inflammation, rechallenge model (AHR/Penh, BAL eosinophils, cytokines); type: in vivo
Procedure: as §2, §1

[5] = Lung concentration, lung half life and tolerability of inhaled oligonucleotide in mice
OVA sensitized mice [6] = experiment: Allergic rhinitis mouse model, intranasal administration; type: in vivo
Procedure: In a mouse model of allergic rhinitis, animals were sensitized intraperitoneally with alum-precipitated OVA on days 1, 5, 10 and 15. OVA diluted with saline was administered intranasally (25 μL of 500 μg OVA in each nare) daily, on days 18-22, 25-29, and 32-35. ISIS 231894 and budesonide were administered intranasally, with budesonide administration one hour before each intranasal OVA challenge. ISIS 231894 was administered on days 11, 13, 15, and one hour before each intranasal OVA challenge. Endpoints were evaluated on day 36 and included nasal mucus accumulation (nasal histopathology) nasal eosinophilia, neutrophilia (by nasal lavage analysis and microscopic eosinophil counts in epithelial tissue) and allergic symptoms (numbers of sneezes and nose-rubs observed over a fixed time period).

OVA sensitized mice [7] = experiment: Acute allergic inflammation mouse model with inhaled budesonide and/or ISIS 231894; type: in vivo; conditions: 1 μg/kg ISIS 231894 alone (Table 9)
Procedure: In the mouse model of allergic inflammation, mice are sensitized and challenged with aerosolized chicken ovalbumin (OVA). Airway responsiveness is assessed by inducing airflow obstruction using a noninvasive method whereby unrestrained conscious OVA sensitized mice are placed into the main chamber of a plethysmograph (Buxco Electronics, Inc. Troy, N.Y.) and challenged with aerosolized methacholine. Pressure difference between this chamber and a reference chamber is used to extrapolate minute volume, breathing frequency and enhanced pause (Penh). Penh is a dimensionless parameter that is a function of total pulmonary airflow (i.e. the sum of the airflow in the upper and lower respiratory tracts) during the respiratory cycle of a mouse and is lower when airflow is greater.
For the acute model of allergic inflammation, mice were sensitized with 20 μg of alum-precipitated OVA was injected intraperitoneally on days 0 and 14. On days 24, 25 and 26, animals were exposed for 20 minutes to 1% OVA (in saline) by ultrasonic nebulization. On days 17, 19, 21, 24 and 26 animals were dosed with vehicle alone (saline), 1 μg/kg or 10 μg/kg of ISIS 231894 or the mismatch control oligonucleotide. Oligonucleotides or vehicle were suspended in 0.9% sodium chloride and delivered via inhalation using a nose-only aerosol delivery exposure system. A Lovelace nebulizer set at a flow rate of 1.4 liter per minute feeding into a total flow rate of 10 liters per minute was used to deliver the oligonucleotide. The exposure chamber was equilibrated with an oligonucleotide aerosol solution for 5 minutes before mice were placed in a restraint tube attached to the chamber. Restrained mice were treated for a total of 10 minutes. Analysis was performed on day 28.
The acute mouse model of allergic inflammation was used to determine if co-administration of inhaled IL-4R alpha antisense oligonucleotide would enhance the activity of inhaled budesonide, or reduce the dose required to produce anti-inflammatory activity. As described in Example 6, mice were sensitized with alum-precipitated OVA at day 0 and day 14 and nebulized with OVA in saline on days 24, 25 and 26. All mice were analyzed on day 28. Budesonide (0.3, 3, 30, and 300 μg/kg dissolved in PBS Containing 20% DMSO) was administered by nose-only aerosol exposure beginning on day 23 (24 and 20 hours before OVA exposure) and then daily through day 26, one hour prior to daily OVA exposure. The 30 μg/kg dose was also administered twice a day (bid) from day 23-26 as a separate group. As in Example 6, ISIS 231894 was administered by nose-only aerosol exposure at day 17, 19, 21, 23 and 26.
The effect of budesonide and/or ISIS 231894 treatment on AHR, BAL eosinophil infiltration and mucus accumulation (number of PAS-positive airways) were determined.

[8] = Table 11, 0.01 mg/kg intranasal

Substance: ISIS 231894: lead antisense oligonucleotide targeted to mouse IL-4R alpha; CCGCTGTTCTCAGGTGACAT; SEQ ID NO: 24; 2'-MOE gapmer, phosphorothioate (all phosphorothioate, sugars by position and methylation of C not given here; 2'-MOE gapmer)
- target protein (IL-4R alpha), Dendritic cells (IL-4R alpha protein [1]; 10 μg/kg inhaled): 25 % positive cells
- target protein (IL-4R alpha), Macrophages/Eosinophils (IL-4R alpha protein [1]; 10 μg/kg inhaled): 18 % positive cells
- target protein (IL-4R alpha), Dendritic cells (IL-4R alpha protein [1]; 100 μg/kg inhaled): 18 % positive cells
- target protein (IL-4R alpha), Macrophages/Eosinophils (IL-4R alpha protein [1]; 100 μg/kg inhaled): 20 % positive cells
- target protein (IL-4R alpha), Dendritic cells (IL-4R alpha protein [1]; 500 μg/kg inhaled): 10 % positive cells
- target protein (IL-4R alpha), Macrophages/Eosinophils (IL-4R alpha protein [1]; 500 μg/kg inhaled): 17 % positive cells
- IL-4R alpha surface expression on lung eosinophils, macrophages and dendritic cells, in words (IL-4R alpha protein [1]; flow cytometry): reduced the amount of IL-4R alpha surface expression
- IL-4R alpha protein in dendritic, epithelial and mixed eosinophil/macrophage lung cells, in words (IL-4R alpha protein [2]): significant reduction
- % Eosinophils (BAL) (OVA sensitized mice [3]; 5 μg/kg inhaled): 45%
- % Neutrophils (BAL) (OVA sensitized mice [3]; 5 μg/kg inhaled): 38%
- % Eosinophils (BAL) (OVA sensitized mice [3]; 500 μg/kg inhaled): 29%
- % Neutrophils (BAL) (OVA sensitized mice [3]; 500 μg/kg inhaled): 35%
- percent of eosinophils in BAL fluid vs vehicle control, in words (OVA sensitized mice [3]; ISIS 231894 500 μg/kg, dexamethasone 2.5 mg/kg ip): significant decrease
- methacholine-induced AHR (Penh) vs vehicle, in words (OVA sensitized mice [3]; ISIS 231894 each dose (5, 500 μg/kg), dexamethasone 2.5 mg/kg ip): significant decrease
- percent neutrophils in BAL, in words (OVA sensitized mice [3]; both doses of ISIS 231894, dexamethasone 2.5 mg/kg ip): significantly reduced
- IL-5 and KC in BAL fluid vs vehicle, in words (OVA sensitized mice [3]; day 62, ISIS 231894 500 μg/kg, dexamethasone 2.5 mg/kg ip): significant reduction
- percentage of eosinophils in BAL fluid vs mismatch control, in words (OVA sensitized mice [4]): significantly reduced
- lung IL-5 mRNA, in words (OVA sensitized mice [4]; 10 μg and 100 μg doses): inhibited
- % Eosinophils (BAL) (OVA sensitized mice [4]; 10 μg/kg inhaled): 22%
- Penh (100 mg/mL methacholine) (OVA sensitized mice [4]; 10 μg/kg inhaled): 3
- % Eosinophils (BAL) (OVA sensitized mice [4]; 100 μg/kg inhaled): 18%
- Penh (100 mg/mL methacholine) (OVA sensitized mice [4]; 100 μg/kg inhaled): 3.5
- % Eosinophils (BAL) (OVA sensitized mice [4]; 500 μg/kg inhaled): 15%
- Penh (100 mg/mL methacholine) (OVA sensitized mice [4]; 500 μg/kg inhaled): 3.5
- methacholine-induced AHR (Penh) vs vehicle control, in words (OVA sensitized mice [4]; all three doses (10, 100, 500 μg/kg)): significant reduction
- cytokines KC, MCP-1, IL-5 and IL-13 in BAL fluid vs vehicle control, in words (OVA sensitized mice [4]; doses of 100 μg and 500 μg, ELISA): significantly reduced expression
- effect of once weekly dosing on AHR and airway inflammation, in words ([5]; mice with well established allergen-induced pulmonary inflammation): reduced AHR and airway inflammation
- tolerability of intrapulmonary aerosol doses ([5]; mice, doses up to 1 mg/kg): well-tolerated
- % Nasal lavage eosinophils (OVA sensitized mice [6]; [8]): 12%
- % Nasal lavage neutrophils (OVA sensitized mice [6]; [8]): 16%
- Nasal rubs (OVA sensitized mice [6]; [8]): 0.8 per 5 min
- Sneezes (OVA sensitized mice [6]; [8]): 2.5 per 5 min
- Tissue eosinophils (OVA sensitized mice [6]; [8]): 438 per mm^2
- % Nasal lavage eosinophils (OVA sensitized mice [6]; Table 11, 0.1 mg/kg intranasal): 2%
- % Nasal lavage neutrophils (OVA sensitized mice [6]; Table 11, 0.1 mg/kg intranasal): 5%
- Nasal rubs (OVA sensitized mice [6]; Table 11, 0.1 mg/kg intranasal): 0.3 per 5 min
- Sneezes (OVA sensitized mice [6]; Table 11, 0.1 mg/kg intranasal): 1.9 per 5 min
- Tissue eosinophils (OVA sensitized mice [6]; Table 11, 0.1 mg/kg intranasal): 240 per mm^2
- % Nasal lavage eosinophils (OVA sensitized mice [6]; Table 11, 1 mg/kg intranasal): 5%
- % Nasal lavage neutrophils (OVA sensitized mice [6]; Table 11, 1 mg/kg intranasal): 13%
- Nasal rubs (OVA sensitized mice [6]; Table 11, 1 mg/kg intranasal): 0.5 per 5 min
- Sneezes (OVA sensitized mice [6]; Table 11, 1 mg/kg intranasal): 1.0 per 5 min
- Tissue eosinophils (OVA sensitized mice [6]; Table 11, 1 mg/kg intranasal): 101 per mm^2
- % Nasal lavage eosinophils (OVA sensitized mice [6]; Table 11, 10 mg/kg intranasal): 9%
- % Nasal lavage neutrophils (OVA sensitized mice [6]; Table 11, 10 mg/kg intranasal): 14%
- Nasal rubs (OVA sensitized mice [6]; Table 11, 10 mg/kg intranasal): 1.1 per 5 min
- Sneezes (OVA sensitized mice [6]; Table 11, 10 mg/kg intranasal): 4.8 per 5 min
- Tissue eosinophils (OVA sensitized mice [6]; Table 11, 10 mg/kg intranasal): 298 per mm^2
- nasal eosinophilia, neutrophilia and allergic symptoms (sneezes and nose rubs), in words (OVA sensitized mice [6]; allergic rhinitis model, intranasal, alone and in combination): reduce nasal eosinophilia, neutrophilia and allergic symptoms
- % Eosinophils (BAL) (OVA sensitized mice [7]): 27%
- PAS+ airways (mucus accumulation) (OVA sensitized mice [7]): 21
- Penh (100 mg/mL methacholine) (OVA sensitized mice [7]): 6.2

Source: patent US20100056606A1, “Combination therapy using budesonide and antisense oligonucleotide targeted to IL4-receptor alpha” (ISIS Pharmaceuticals, Inc., priority 2005, published 2010)
